Experimental findings from paper PMC10637926 (Heliyon, 2023) are described below.

In general, pIC50 refers to the IC50 on a negative log10 scale, so that one unit is a factor of ten. Lower therefore signals a high IC50. As usually defined, the inhibition is the drop in the measured response relative to a control, in per cent.

For this experiment, the target named is AChE enzyme from Electrophorus electricus (electric eel) (Electrophorus electricus, UniProt O42275). The experiment can be described thus: In vitro AChE inhibition, Ellman spectrophotometric procedure. Type of experiment: biochemical. The note with it: for pIC50: IC50 against AChE, dose dependent assay, 412 nm; for inhibition at 100 µM: read-out: AChE inhibition, mean of R1-R3. For orientation: DTNB colorimetry detects thiols as they appear.

pIC50: −log10 of the molar value.

Sequence of AChE enzyme from Electrophorus electricus (electric eel) (O42275 24-633): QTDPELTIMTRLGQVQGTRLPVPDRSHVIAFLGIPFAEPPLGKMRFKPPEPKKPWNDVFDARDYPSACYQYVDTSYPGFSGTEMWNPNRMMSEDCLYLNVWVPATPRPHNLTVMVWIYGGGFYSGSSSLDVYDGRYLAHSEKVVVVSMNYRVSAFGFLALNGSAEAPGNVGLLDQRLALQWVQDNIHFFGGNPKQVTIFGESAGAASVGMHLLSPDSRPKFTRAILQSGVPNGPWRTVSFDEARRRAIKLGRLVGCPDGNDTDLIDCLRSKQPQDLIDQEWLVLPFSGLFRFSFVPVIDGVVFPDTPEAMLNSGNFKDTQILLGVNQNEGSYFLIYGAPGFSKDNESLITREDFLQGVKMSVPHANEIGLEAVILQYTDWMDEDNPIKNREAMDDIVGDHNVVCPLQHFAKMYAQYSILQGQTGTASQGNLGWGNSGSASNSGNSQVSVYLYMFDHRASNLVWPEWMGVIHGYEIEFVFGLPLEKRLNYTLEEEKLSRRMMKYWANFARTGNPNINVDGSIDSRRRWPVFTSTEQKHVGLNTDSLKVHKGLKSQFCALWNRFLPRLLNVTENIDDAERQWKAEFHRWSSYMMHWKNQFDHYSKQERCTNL

Consider `O=c1cc(-c2ccc(O)cc2)oc2cc(O)cc(O)c12` [Apigenin], for which the pIC50 was 4.86 and the inhibition at 100 µM is 80%. With `O=c1c(O)c(-c2ccc(O)c(O)c2)oc2cc(O)cc(O)c12` [Quercetin], the inhibition at 100 µM came out at 85.7%. As to `COc1c(O)cc(O)c2c(=O)cc(-c3ccccc3)oc12` [Wogonin], the pIC50 was 4.81 and the inhibition at 100 µM amounted to 80.3%.
